Results: US20050142581A1, “Microrna as ligands and target molecules” (priority 2003, published 2005)
Where “and” joins values, the source holds several entries; their conditions need not be identical. Equal entries are not always repeated. Entries after “also recorded” stand apart in the source; their conditions may differ.

System: 27 nucleotide fragment of bacterial 16S ribosomal RNA incorporating the A-site
Test: ESI-FT-ICR mass spectrometry detection of non-covalent ligand complexes with 16S RNA fragment
Type: binding
Conditions: for ion abundance of binary complex relative to unbound 16S RNA: 200 μM ligand, 5 μM target 16S RNA fragment; for ion abundance of binary complex relative to unbound 16S RNA / relative binding affinity from comparison of ion abundance of binary complexes: mass spectrometry; for relative binding affinity from comparison of ion abundance of binary complexes: 16S RNA fragment; for mode of binding interaction of two ligands for the target RNA: ligand pair mixed with 5 μM 16S RNA fragment, presence and abundance of ternary complex
Description: Ligands bind competitively for a target when the binding of one ligand prevents the binding of the other ligand is the result of the ligands binding to the target at the same location. In this situation, the mixture contains an equilibrium of two binary complexes, one of which being one ligand bound to the target and the other being the other ligand bound to the target. The ligand having the greater affinity for the target will predominate and thus have higher signal intensity for its binary complex with the target compared to the other ligand. Competitive binding interaction between two ligands is determined according to methods of the invention by analyzing the mixture by mass-spectrometry to detect the presence or lack of signal corresponding to a ternary complex where both ligands are bound to the target at the same time. The lack of signal for a ternary complex indicates a competitive binding interaction between the two ligands while the presence of the signal indicates a non-competitive interaction.
Ligands bind concurrently when the binding of one ligand to the target is unaffected by the binding of the other and is a consequence of the ligands binding to the target at distinct sites. […] The ligand having the greater affinity for the target will have higher signal intensity for its binary complex with the target compared to the other ligand. […] Particularly, the absolute ion abundance of the ternary complex (TL1L2) is compared to the relative ion abundance of the binary complexes (TL1 and TL2) which contribute to the formation of the ternary complex with respect to the unbound target (TL1×TL2/T). Since there are two binary complexes contributing the formation of the ternary complex, the comparison is with the sum of the two contributing binary complexes i.e. TL1×TL2/T+TL2×TL1/T. If the absolute ion abundance of the ternary complex is equal to the sum of the relative ion abundance of the contributing binary complexes, then the two ligands concurrently bind to the target substrate. […] The relative ion abundance of the ternary complex (16S+2−DOS+DT) with respect to the unbound 16S target RNA (16S) is equal, within limits of error, to the sum of the relative ion abundance of the contributing binary complex ((16S+DT)×(16S+2−DOS)) with respect to the unbound target (16S) and the contributing binary complex ((16S+2−DOS)+(16S+DT)) with respect to the unbound target (16S).
All MS experiments were performed by using an Apex II 70e ESI-FT-ICR MS (Bruker Daltonics, Billerica, Mass.) with an actively shielded 7 tesla superconducting magnet. RNA solutions were prepared in 50 mM NH4OAc (pH 7), mixed with 10% isopropanol to aid desolvation, and infused at a rate of 1.5 μL/min by using a syringe pump. Ions were formed in a modified electrospray source (Analytica, Branford, Conn.) by using an off-axis grounded electrospray probe positioned about 1.5 cm from the metallized terminus of the glass desolvation capillary biased at 5,000 V. A countercurrent flow of dry […] gas heated to 150° C. was used to assist in the desolvation process. Ions were accumulated in an external ion reservoir comprised of a radio frequency-only hexapole, a skimmer cone, and an auxiliary electrode for 1,000 ms before transfer into the trapped ion cell for mass analysis. Each spectrum was the result of the co-addition of 64 transients comprised of 524,288 data points acquired over a […] bandwidth, resulting in a 1.2-sec detection interval. All aspects of pulse sequence control, data acquisition, and postacquisition processing were performed by using a Bruker Daltonics data station running XMASS Version 4.0 on a Silicon Graphics (Mountain View, Calif.) R5000 computer.
RNA binding ligands are selected from a set of compounds using mass spectrometry. The RNA used for the target molecule is an RNA whose electrospray ionization properties have been optimized in conjunction with optimization of the electrospray ionization and desolvation conditions. […]

1-{2-[(3R)-4-((2S)-2-amino-3-hydroxypropanoyl)-3-methylpiperazinyl]-2-oxoethyl}-5-methyl-1,3-dihydropyrimidine-2,4-dione [IBIS-271583]
ion abundance of binary complex relative to unbound 16S RNA: 27.8%
ion abundance of binary complex relative to unbound 16S RNA (listed as IBIS-271483): 52.4%
relative binding affinity from comparison of ion abundance of binary complexes: greater affinity for 16S than either parent compound
relative binding affinity from comparison of ion abundance of binary complexes (listed as IBIS-271483): greater affinity for the target 16S RNA than either of the parent compounds

N[C@@H]1C[C@H](N)[C@@H](O)C(O)[C@H]1O (some centres unmarked) [2-DOS, 2-deoxystreptamine, reference compound]
relative binding affinity from comparison of ion abundance of binary complexes: greater binding affinity for the target RNA than DT
mode of binding interaction of two ligands for the target RNA: concurrent binding interaction; also recorded: cooperative binding

NN1CN(SCc2ccccc2)C=N1 [2-amino-4-benzylthio-1,2,4-triazole]
ions of ligand adduct with RNA target observed (RNA target 5 micromolar, ligand 100 micromolar, ammonium as standard ligand): also seen

Nc1n[nH]c(N)n1 [DT, 3,5-diamino-1,2,4-triazole, reference compound]
mode of binding interaction of two ligands for the target RNA: concurrent binding interaction
mode of binding interaction of two ligands for the target RNA (listed as 3,5-DT): cooperative binding
mode of binding interaction of two ligands for the target RNA (listed as 3,5-diamino-1,2,4-triazole): concurrent binding

N[C@@H](CO)C(=O)N1CCNCC1 [IBIS-326611, (2S)-2-amino-3-hydroxy-1-piperazinylpropan-1-one]
ion abundance of binary complex relative to unbound 16S RNA: 14.7% and 27.8%

Nc1cccc2nc(C3CCNCC3)[nH]c12 [Ibis-326732, 4-amino-2-piperidin-4-ylbenzimidazole]
relative binding affinity from comparison of ion abundance of binary complexes: greater affinity than glucosamine
mode of binding interaction of two ligands for the target RNA: competitive displacement of glucosamine; also recorded: competitive binders

N[C@H]1C(O)O[C@H](CO)[C@@H](O)[C@@H]1O (some centres unmarked) [glucosamine, reference compound]
mode of binding interaction of two ligands for the target RNA: competitive binders; also recorded: displaced from the RNA by addition of a benzimidazole compound
